Experiment: Solubility by the shake-flask method
Conditions: Table 2: Solubility test of Fe28 clusters (acid linkers; Fe28+Tartaric acid with Ba, Ca, Mg counterions); conditions not given separately
Experimental: Solubility was determined by the shake-flask method (table 1) at room temperature (25 °C, pH = 5.7 in 0.3 M of Na2SO4).

| Substance | Solubility [mM] |
| --- | --- |
| Mq10[Fe28(µ3-O)8(tart)16(OAc)24] ×H2O [Mg10Fe28] | 1 |
| Ca10[Fe28(µ3-O)8(tart)16(OAc)24] ×H2O [Ca10Fe28] | 2 |
| Ba10[Fe28(µ3-O)8(tart)16(OAc)24] ×H2O [Ba10Fe28] | 84 |

Same assay, conditions: shake-flask method, room temperature (25 °C, pH = 5.7 in 0.3 M of Na2SO4); Table 1, influence of the cation

| Substance | Solubility [mM] |
| --- | --- |
| K20[Fe28(µ3-O)8(tart)16(OAc)24] ×H2O [Cluster K20Fe28] | 50 |
| Na20[Fe28(µ3-O)8(tart)16(OAc)24] ×H2O [Na20Fe28] | 70 |
| K2Li18[Fe28(µ3-O)8(tart)16(OAc)24] ×H2O [Cluster K2Li28Fe28] | 88 |
| Li2Na18[Fe28(µ3-O)8(tart)16(OAc)24] ×H2O [Li2Na18Fe28] | 83 |
| Li2K18[Fe28(µ3-O)8(tart)16(OAc)24] ×H2O [Li2K18Fe28] | 48 |
